Legend:
NaV1.7 = molecular target: T1, NaV1.7 (Homo sapiens, UniProt Q15858); assay: Tl+-flux selectivity panel in HEK-293 cells: NaV1.7; type: cell-based; settings: HEK293, 10 µM test compound, relative to control TC-N 1752, read-out: Percent Inhibition ± SEM
T1 construct: expressed in transfected cells; host or cells: HEK293
Description: (§1) With a handful of analogs that offered improved SLACK potency relative to hit compound 8, we next proceeded to investigate the ancillary pharmacology of such compounds, both with respect to other Slo family members as well as versus a spectrum of diverse ion channels (Table 5). Thus, we screened four compounds (32, 48, 70, and 71) at 10 µM in our in-house selectivity panel of Tl^+-flux assays in HEK-293 cells stably expressing the target of interest. […] Some valuable SAR was noted as well. […] Reduction of inhibition at Maxi-K α1/β4 also followed. This SAR will be important to bear in mind for continued optimization within this series. […] Of particular note is the lack of significant hERG activity in this series, as activity versus that counter-target has been an issue with other SLACK inhibitors.
(§2) Stably transfected monoclonal HEK293 cell lines expressing Slick, Maxi-K α1/β3, Maxi-K α1/β4, CaV3.2, GIRK 1/2, KV2.1, KV7.2, NaV1.7, and TASK-1 were generated as previously described. Stably transfected monoclonal HEK293 cell lines expressing hERG were generated as previously described. CHO-K1 cells expressing human Slack and disease-associated human Slack mutations, G288S and A934T, were generated by transfecting a PiggyBac TRE mammalian expression vector (VectorBuilder, Chicago, IL, USA) containing KCNT1. FuGENE 6 (Promega, Madison, WI, USA) transfection reagent and protocol, together with Opti-MEM (Thermo Fisher Scientific, Walkham, MA, USA), were utilized.
(§3) The Tl^+ flux assays were conducted as previously described with modifications optimized for individual cell lines as described below. Following removal of cell culture media, cells were loaded with Tl^+-sensitive dye loading solution containing Thallos-AM (ION Biosciences, San Marcos, TX, USA), 1.25 mM Probenecid, and 0.3% Pluronic F-127 (MilliporeSigma, Burlington, MA, USA), in assay buffer comprised of Hanks Balanced Salt Solution (HBSS) (Thermo Fisher Scientific, Waltham, MA, USA) and 20 mM HEPES (Corning, Corning, NY, USA) at room temperature for one-hour. Dye loading solution was replaced with 20 μL/well of assay buffer prior to assaying. Cell plates were then loaded onto a Panoptic kinetic imaging plate reader (WaveFront Biosciences, Franklin, TN, USA). Data were acquired at 5 Hz (excitation 482 ± 35 nm, emission 536 ± 40 nm) for 10 s, at which time 20 μL/well of test compounds in assay buffer at 2-fold above the desired final concentration was added and allowed to incubate for 120 s. Next, 10 μL/well of Tl^+ stimulus buffer (129 mM Na gluconate, 1.2 mM CaSO4, 1 MgSO4, 1 mM Na2HPO4, 4.17 mM NaHCO3, 5.56 mM glucose, 2.5 mM Tl2SO4, and 10 mM HEPES pH 7.3) was added. Imaging was concluded after an additional 120 s.

SLICK = molecular target: T2, SLICK (Homo sapiens, UniProt Q6UVM3); assay: Tl+-flux selectivity panel in HEK-293 cells: SLICK; type: cell-based; settings: HEK293, 10 µM test compound, relative to control SKF96365, read-out: Percent Inhibition ± SEM
T2 construct: expressed in transfected cells; host or cells: HEK293
T2 sequence (Q6UVM3 1-1135): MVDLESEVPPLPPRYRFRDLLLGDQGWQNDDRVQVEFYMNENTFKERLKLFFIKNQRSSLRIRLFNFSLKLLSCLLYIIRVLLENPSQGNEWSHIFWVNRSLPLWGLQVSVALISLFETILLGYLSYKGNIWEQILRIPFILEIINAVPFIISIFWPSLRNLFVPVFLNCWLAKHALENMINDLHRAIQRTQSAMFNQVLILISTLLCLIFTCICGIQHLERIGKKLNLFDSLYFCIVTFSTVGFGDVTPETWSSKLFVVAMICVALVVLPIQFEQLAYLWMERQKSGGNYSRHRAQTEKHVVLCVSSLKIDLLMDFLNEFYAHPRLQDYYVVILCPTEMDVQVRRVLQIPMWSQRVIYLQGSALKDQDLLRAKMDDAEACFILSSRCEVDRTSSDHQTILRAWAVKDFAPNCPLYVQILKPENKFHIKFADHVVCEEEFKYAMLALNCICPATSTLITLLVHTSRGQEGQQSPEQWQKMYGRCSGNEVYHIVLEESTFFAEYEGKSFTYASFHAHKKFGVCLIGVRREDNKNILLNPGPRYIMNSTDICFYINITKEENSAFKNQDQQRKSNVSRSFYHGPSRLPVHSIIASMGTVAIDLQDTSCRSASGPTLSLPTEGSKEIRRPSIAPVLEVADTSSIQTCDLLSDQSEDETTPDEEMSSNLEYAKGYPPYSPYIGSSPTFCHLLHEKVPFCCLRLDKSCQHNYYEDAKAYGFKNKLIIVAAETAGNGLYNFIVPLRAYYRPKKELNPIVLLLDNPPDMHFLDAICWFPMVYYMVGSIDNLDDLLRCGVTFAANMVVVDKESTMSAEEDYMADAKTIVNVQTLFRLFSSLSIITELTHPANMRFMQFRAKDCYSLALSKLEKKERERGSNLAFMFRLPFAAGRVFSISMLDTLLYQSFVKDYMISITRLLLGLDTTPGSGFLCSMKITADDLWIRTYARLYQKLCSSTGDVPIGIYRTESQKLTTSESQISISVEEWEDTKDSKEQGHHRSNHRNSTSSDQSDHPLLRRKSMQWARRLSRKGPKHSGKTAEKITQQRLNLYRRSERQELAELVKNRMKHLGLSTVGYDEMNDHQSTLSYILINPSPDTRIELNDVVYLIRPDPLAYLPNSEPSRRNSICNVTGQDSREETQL
Description: as §1, §2, §3

T1 sequence (Q15858 whole entry): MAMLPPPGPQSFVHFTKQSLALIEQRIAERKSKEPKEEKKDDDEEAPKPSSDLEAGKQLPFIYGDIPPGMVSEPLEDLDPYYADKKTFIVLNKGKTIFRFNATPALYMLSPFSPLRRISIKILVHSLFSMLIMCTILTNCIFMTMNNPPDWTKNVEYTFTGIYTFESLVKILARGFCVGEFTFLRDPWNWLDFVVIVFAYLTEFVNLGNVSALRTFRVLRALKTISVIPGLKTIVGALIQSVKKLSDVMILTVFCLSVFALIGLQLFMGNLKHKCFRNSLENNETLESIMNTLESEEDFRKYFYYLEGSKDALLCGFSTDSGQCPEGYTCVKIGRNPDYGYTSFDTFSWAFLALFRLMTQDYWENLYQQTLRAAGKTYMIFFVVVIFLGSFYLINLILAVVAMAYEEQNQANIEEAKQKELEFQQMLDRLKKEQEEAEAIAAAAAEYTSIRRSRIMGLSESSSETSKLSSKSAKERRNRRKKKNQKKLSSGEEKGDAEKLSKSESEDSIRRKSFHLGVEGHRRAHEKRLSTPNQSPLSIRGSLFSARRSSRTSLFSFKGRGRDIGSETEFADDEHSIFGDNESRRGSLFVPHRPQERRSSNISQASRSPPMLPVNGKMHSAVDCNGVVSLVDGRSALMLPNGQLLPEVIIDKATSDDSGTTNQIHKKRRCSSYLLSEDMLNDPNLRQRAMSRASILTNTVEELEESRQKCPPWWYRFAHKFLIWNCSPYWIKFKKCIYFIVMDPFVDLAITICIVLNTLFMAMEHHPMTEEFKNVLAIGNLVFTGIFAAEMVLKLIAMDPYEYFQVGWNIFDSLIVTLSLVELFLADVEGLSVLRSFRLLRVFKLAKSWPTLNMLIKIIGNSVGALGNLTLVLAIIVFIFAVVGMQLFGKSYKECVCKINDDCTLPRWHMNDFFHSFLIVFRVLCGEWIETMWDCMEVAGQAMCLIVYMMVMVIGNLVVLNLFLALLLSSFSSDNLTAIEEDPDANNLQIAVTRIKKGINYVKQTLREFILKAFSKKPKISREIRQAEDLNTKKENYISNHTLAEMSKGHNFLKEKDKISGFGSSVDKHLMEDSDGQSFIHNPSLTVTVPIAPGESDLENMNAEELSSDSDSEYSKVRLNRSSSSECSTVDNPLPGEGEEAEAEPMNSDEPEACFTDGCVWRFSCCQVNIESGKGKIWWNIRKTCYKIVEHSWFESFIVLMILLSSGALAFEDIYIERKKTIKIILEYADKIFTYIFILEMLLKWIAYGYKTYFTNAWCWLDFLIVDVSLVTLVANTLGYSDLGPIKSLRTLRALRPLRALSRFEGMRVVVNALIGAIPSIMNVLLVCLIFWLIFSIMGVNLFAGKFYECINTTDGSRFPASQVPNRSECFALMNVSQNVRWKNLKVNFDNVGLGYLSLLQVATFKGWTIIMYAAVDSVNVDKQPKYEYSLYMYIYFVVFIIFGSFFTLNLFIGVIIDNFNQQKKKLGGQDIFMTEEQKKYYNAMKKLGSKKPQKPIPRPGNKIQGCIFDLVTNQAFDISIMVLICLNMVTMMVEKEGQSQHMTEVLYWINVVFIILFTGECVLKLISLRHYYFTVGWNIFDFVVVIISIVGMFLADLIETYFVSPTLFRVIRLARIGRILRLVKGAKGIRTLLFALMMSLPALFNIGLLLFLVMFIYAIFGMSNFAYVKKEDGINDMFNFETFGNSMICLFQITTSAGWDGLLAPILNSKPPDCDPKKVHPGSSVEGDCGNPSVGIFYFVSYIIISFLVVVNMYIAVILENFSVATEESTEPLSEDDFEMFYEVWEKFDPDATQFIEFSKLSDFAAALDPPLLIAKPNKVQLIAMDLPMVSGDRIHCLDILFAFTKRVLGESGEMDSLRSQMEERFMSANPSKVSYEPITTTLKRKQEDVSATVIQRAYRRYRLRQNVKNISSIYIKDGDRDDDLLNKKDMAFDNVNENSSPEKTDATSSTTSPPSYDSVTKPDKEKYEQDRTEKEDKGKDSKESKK

Row | Compound | inhibition at 10 µM (NaV1.7) [%] | inhibition at 10 µM (SLICK) [%]
1 | COc1cccc(Cn2c(=O)c3c(nc(N(C)Cc4ccccc4)n3C)n(C)c2=O)c1 [Analog 32] | 41 ± 3.3 | 28 ± 5.5
2 | CN(Cc1cccc(F)c1)c1nc2c(c(=O)n(Cc3ccccc3)c(=O)n2C)n1C [Analog 48] | 39 ± 3.1 | 21 ± 3.1
3 | CCCCN(Cc1ccccc1)c1nc2c(c(=O)n(Cc3ccccc3)c(=O)n2C)n1C [Analog 70] | 33 ± 1.4 | 18 ± 4.2
4 | Cn1c(N(Cc2ccccc2)CC2CC2)nc2c1c(=O)n(Cc1ccccc1)c(=O)n2C [Analog 71] | 29 ± 3 | 17 ± 2.5

Reference: paper PMC11173529, “Structure–Activity Relationship Studies in a Series of Xanthine Inhibitors of SLACK Potassium Channels” (Molecules, 2024)
